Measurements as given in patent publication US8202696B2, “Means for use in treating diseases correlated with or caused by non-physiological levels of microtubule-associated PP2Ac” (Max-Planck-Gessellschaft zur Forderung der Wissenschaften …, priority 2002, dated 2012).
Where no end group is shown, it is not given here.

Assays:
Gli3 [1] = test: Localization of overexpressed GFP-tagged Gli3 in HeLa cells; format: cell-based; settings: GFP-tagged Gli3-overexpressing HeLa cells
Procedure: 1×10^5 HELA cells per well of a 6-well plate were transfected with Qiagen Polyfect transfection reagent according to the manufacturer's instructions. The ratio of the amount of DNA to the amount of polyfect transfection reagent was 3 μg DNA/10 μl Polyfect. Constructs used for expression in HELA were the following: GFP-GLI3 (aa 18-1549), GLI3-GFP (aa 1-1522), MYC-GLI3 (aa 18-1596), FLAG-GLI3 (aa18-1596), MYC-B-BOX1 (aa 110-167 of the MID1 protein), ALPHA4-V5 (aa 1-339). 24 h after transfection immunofluorescence was performed. GFP-constructs were treated as described in Schweiger et al., 1999. Immunofluorescence with MYC-tagged and FLAG-tagged constructs was done according to Trockenbacher et al., 2001. FLAG-tagged constructs were detected with anti-FLAG-antibody diluted 1:500, the secondary antibody FITC-antimouse was diluted 1:1000. For MYC-tagged constructs anti-MYC-antibody 1:300 and CY3-antirabbit 1:1000 were used. […]
Overexpressed Gli3 is predominantly localized in the nucleus (FIG. 10, top left).

MID1/PP2A complex = biological target: T1, MID1/PP2A complex (Homo sapiens, UniProt P78318); test: hFused phosphorylation in cells co-expressing hFused and B-Box1, Western blot; format: cell-based
T1 construct: endogenous in cells
T1 sequence (P78318 1-339): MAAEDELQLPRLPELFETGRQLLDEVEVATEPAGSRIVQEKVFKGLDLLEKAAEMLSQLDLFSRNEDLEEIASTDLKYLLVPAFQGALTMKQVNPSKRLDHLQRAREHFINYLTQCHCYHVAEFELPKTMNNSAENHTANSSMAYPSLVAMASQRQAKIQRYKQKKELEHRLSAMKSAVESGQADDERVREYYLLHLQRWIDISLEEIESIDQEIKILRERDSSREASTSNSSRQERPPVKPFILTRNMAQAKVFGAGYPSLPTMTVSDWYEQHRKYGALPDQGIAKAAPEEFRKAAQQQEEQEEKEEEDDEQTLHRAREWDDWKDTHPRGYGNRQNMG
Procedure: 8×10^5 cells were transfected with hFused-V5 (aa 1-1335) in presence and absence of MYC-B-BOX1 (aa 110-167 of the MID1 protein) using Qiagen polyfect transfection reagent according to the manufacturer's instructions. Cell pellets were resuspended in magic mix (48% urea, 15 mM Tris-HCl, 8.7% glycerin, 1% SDS, 0.004% Bromphenol Blue, 143 mM β-Mercaptoethanol). After sonification, cell lysate of cells expressing hFused and hFused together with B-Box1 was separated on a 6% SDS-gel (200 μg protein loaded in each lane), blotted on PVDF-membranes and incubated with anti-V5-antibody (1:3000). Secondary HRP-antimouse-antibody was diluted 1:2000.
A dominant-negative effect of the B-Box1-peptide leading to an inhibition of […] induced ubiquitination of microtubules-associated PP2A and resulting in a enrichment of microtubules-associated PP2A was shown previously.
Cell lysate of cells expressing only hFused (con) and hFused together with the B-Box1 (+B-Box1) was separated on an SDS-Page, blotted and incubated with an anti-V5-antibody. In order to stop all kinase and phosphatases directly after cell lysis, cells were lysed in an SDS- and urea-containing buffer.

α4 = biological target: T2, α4 (Homo sapiens, UniProt P78318); test: Yeast two-hybrid interaction of MID1 constructs with α4; format: binding
T2 construct: expressed in transfected cells; host or cells: L40 yeast strain
T2 sequence (P78318 1-339): T1 sequence (P78318 1-339)
Procedure: Yeast two-hybrid screening. For yeast two-hybrid screening, we cloned full-length MID1 cDNA into the pBTM116 vector. We then cotransfected this with a human fetal brain cDNA Matchmaker library in the pGAD10 vector (Clontech) into the L40 yeast strain. We plated the transformants on synthetic medium lacking histidine, leucine and tryptophan (his^− leu^− trp^−) and containing 3-amino-1,2,4, triazole, and incubated the plates at 30° C. for 5 days. We assayed his-positive colonies for β-galactosidase activity with a filter assay^47. We isolated plasmid DNA from β-galactosidase-positive clones and cotransfected this again into L40 yeast with MID1-pBTM116 and controls. We selected plasmids that produced growth on selective plates only in combination with MID1-pBTM116, which were assumed to code for MID1 interactors, and sequenced them.
Activity of β-galactosidase in yeast liquid cultures. We assayed cells for β-galactosidase activity by the o-nitrophenyl-β-D-galactopyranoside (ONPG) method^47.
MID1 is a multidomain protein harboring a RING finger, two B-boxes, a coiled-coil region, a fibronectin type III domain and a B30.2 domain^3—all of which are candidate regions for specific protein-protein interactions. To clarify which domain specifically binds α4, we tested several deletion mutants of MID1 for interaction with α4 in the yeast two-hybrid system. […]

Gli3 [2] = test: Localization of GFP-GLI3 in cultured U373MG cells; format: cell-based; settings: 24 hours after transfection, 100 cells counted
Procedure: COS7-HELA- and U373MG-cells were transfected using PolyFect Transfection Reagent (Qiagen, cat. no. 301107) according to the manufacturer's instructions. Gli3 cDNA was cloned into pEGFP-C1 and pEGFP-N3 vectors (Clontech) respectively. 100 transfected cells per experiment (Gli3-GFP, GFP-Gli3, Gli3-GFP+myc-MID1, GFP-Gli3+myc-MID1, Gli3-GFP+myc-BBox1, GFP-Gli3+myc-BBox1) were counted and analysed for Gli3 localization. Experiments were repeated twice. […] PCMV-Tag3 vector from Stratagene was used for myc-MID1 and myc-BBox1 overexpression.

patched gene = test: Patched-specific semiquantitative RT-PCR of HeLa cells; format: cell-based; settings: compared to mock-transfected cells
Procedure: One of the most important targets of the Gli3 transcription factor is the patched gene. In order to analyse HeLa cells for Gli3 activity after treatment with the different molecules, semiquantitative RT-PCR of cells overexpressing the B-Box1 and the α4 protein was carried out (FIG. 13). HeLa cells have previously been tested for Gli3-, Gli1 (another target of the Gli3 transcription factor) and patched-expression.

B-Box1: peptide derived from the MID1 domain that is responsible for α4 binding (amino acids 108-165), expressed from plasmid (ANTMTSAEKVLCQFCDQDPAQDAVKTCVTCEVSYCDECLKATHPNKKPFTGHRLIEPI; cysteine pairing not given here; also: myc tag; UniProt O15344 108-165, looked up, fragment)
Gli3 localization (Gli3 [1]): significant retention of the active form of Gli3 in the cytosol
Ratio between phosphorylated and dephosphorylated hFused-form (MID1/PP2A complex; FIG. 15c, control 10.3): 3
Ratio between phosphorylated and dephosphorylated hFused-form (MID1/PP2A complex; FIG. 16c, reproduction, control 8.3): 3
Interaction with α4 (α4): sufficient for a strong interaction with α4
GFP-GLI3 localization (Gli3 [2]; listed as B-BOX1): significant change of GFP-GLI3 from nucleus to cytosol
GFP-GLI3 localization (Gli3 [2]; listed as BBox1): significant change from the nucleus to the cytosol
GFP-GLI3 localization (Gli3 [2]; listed as Bbox1): significant Bbox1-dependent change of Gli3 localization
patched message (patched gene): significant reduction of the patched message
